Where a name gives a salt, the structure may show the parent alone. Read-outs that look alike come from different tables or passages of the source.
Experiments:
Whole Blood = assay: In vitro LPS/R848-induced cytokine production assay in whole blood; type: cell-based, human; conditions: Homo sapiens
Protocol: In Vitro LPS/R848/CpG-Induced Cytokine Production Assays in hPBMC or Whole Blood
Compounds of the present invention were also studied in in vitro LPS/R848/CpG-induced cytokine production assays. Exemplary protocols follow.
[…] Cells were seeded in a 96-well plate with 130 ul/well of the cell suspension according to the plate map. 9 ul of 30 mM compound solution was added into the wells in the assigned rows, then serial solutions with 4× dilutions were made. That is, add 9 uL of 100% DMSO into each of the rest wells and take 3 uL of compound solution from the one-step higher concentration solution and mix well with the DMSO. For the second compound master plate, 196 uL of the growth medium (no serum media) were added into each of the wells and 4 uL of the compound solution from the first compound master plate was added and mixed with the media. Cells were treated for 0.5 h by adding 20 uL of the compound and the control solutions prepared in the second master plate to each well according to the plate map. […] Plates were sealed with sealing films and the plates were centrifuged at 3000 rpm at 4 degrees C. for 5 min. The supernatants were transferred, and 100 ul of working Capture antibody solution was added to each well. The plates were sealed and incubated overnight at RT. IL-6, IFN-α or TNF-α detection antibody labeled with biotin: Added 100 uL of the Detection Antibody solution to each well. Covered the plate and incubated for 2 h at RT. Added 100 uL of Streptavidin-HRP solution to each well. Covered the plate and incubate for 20 min at RT in dark. Added 100 uL of Substrate Solution to each well. Incubated for 20 min at RT in dark. Added 50 uL of Stop Solution to each well. Gently tapped the plate to ensure thorough mixing. Determined the optical density of each well immediately, using a microplate reader set to 450 nm and also read at 540 nm or 570 nm for correction if wavelength correction is not available.

THP-1 cells = assay: LPS induced cytokine (TNFα and IL8) production assay in THP-1 cells; type: cell-based; conditions: Homo sapiens, 300 ng/mL LPS
Protocol: Cytokine Production Assay
Provided compounds were also assayed in an LPS (Lipopolysacharide) or R848 (TLR-7 agonist) induced cytokine (TNFα and IL8) production assay in THP-1 cells, human peripheral blood mononuclear cells (hPBMC), and whole blood. The exemplary protocol for this assay in THP-1 cells was as follows below.
THP-1 cells from ATCC (TIB-202) were cultured in RPMI Medium 1640 (Invitrogen, Cat No. A10491-01), 10% fetal bovine serum (Invitrogen, Cat No. 10099141, Lot No. 8172882) containing 100 U/mL Penicillin, 100 μg/mL streptomycin (Invitrogen, Cat No. 15140-122), and 50 uM 2-Mercaptoethanol (Invitrogen, Cat No. 21985023). LPS-EK ultra pure (Invivogen, Cat No. tlrl-peklps) was used to induce IL8 and TNFα production, that was detected in the cell culture supernatant by IL8 HTRF kit (Cisbio, Cat No. 62IL8PEB) and TNFα HTRF kit (Cisbio, Cat No. 62TNFPEB), as per manufacturer instructions. Cells were cultured in 96 well assay plates at 100,000 cells per well, and compounds diluted in final 0.3% DMSO were pre-incubated with cells for 1 hour prior to stimulation with 300 ng/mL LPS. Cytokine production in cell supernatant was measured at 5 hours for TNFα and IL8 production, and for 16 hours for IL8 production and assessment of cell viability.
The compound numbers correspond to the compound numbers in Table 1. […] “NA” stands for “not assayed.”

IRAK4 = target: T1, IRAK4 (Homo sapiens, UniProt Q9NWZ3); assay: IRAK-4 activity inhibition assay (Caliper); type: biochemical; conditions: 37 μM ATP, 3.5 nM IRAK4
T1 sequence (Q9NWZ3 1-460): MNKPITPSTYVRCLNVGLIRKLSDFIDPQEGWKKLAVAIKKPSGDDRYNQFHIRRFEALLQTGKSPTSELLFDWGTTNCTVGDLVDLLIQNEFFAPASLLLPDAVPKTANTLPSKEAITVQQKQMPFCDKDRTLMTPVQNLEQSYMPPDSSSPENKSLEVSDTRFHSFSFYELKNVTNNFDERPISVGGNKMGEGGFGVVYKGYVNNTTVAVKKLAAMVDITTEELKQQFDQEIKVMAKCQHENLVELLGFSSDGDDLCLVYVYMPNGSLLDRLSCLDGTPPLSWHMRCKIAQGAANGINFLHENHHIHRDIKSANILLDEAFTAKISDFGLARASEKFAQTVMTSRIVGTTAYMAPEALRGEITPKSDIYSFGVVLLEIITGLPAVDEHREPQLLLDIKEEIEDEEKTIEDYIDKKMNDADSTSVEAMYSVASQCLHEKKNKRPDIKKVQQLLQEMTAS

[1] = LPS 0.1 ug/mL, read-out: TNF-α production IC50
[2] = R848 1 uM, read-out: IFN-α production IC50

SMILES | IC50 (Whole Blood; [1]) [µM] | IC50 (Whole Blood; [2]) [µM] | IC50 (THP-1 cells; read-out: IL8 production IC50) [µM] | IC50 (THP-1 cells; read-out: TNFα production IC50) [µM] | IC50 (IRAK4) [µM]
CN(C)[C@H]1CC[C@H](Oc2ncnc3sc4c(c23)[C@@H](C[C@H](O)C(=O)NCO)CC4)CC1 [Compound I-100, (S)-3-((R)-4-(((1r,4R)-4-(dimethylamino)cyclohexyl)oxy)-6,7-dihydro-5H-cyclopenta[4,5]thieno[2,3-d]pyrimidin-5-yl)-2-hydroxy-N-(hydroxymethyl)propanamide] | – | – | 1 to 5 | 1 to 5 | < 5
CN(C)[C@H]1CC[C@H](Oc2ncnc3sc4c(c23)CC(CCO)CC4)CC1 (some centres unmarked) [Compound I-108, 2-[3-[[4-(dimethylamino)cyclohexyl]oxy]-8-thia-4,6-diazatricyclo[7.4.0.0[2,7]]trideca-1(9),2(7),3,5-tetraen-12-yl]ethan-1-ol formate] | – | – | – | 1 to 5 | < 5
CN(C)[C@H]1CC[C@H](Oc2ncnc3sc4c(c23)[C@@H](CC(N)=O)CC4)CC1 [Compound I-43, 2-[(3R)-12-[[4-(dimethylamino)cyclohexyl]oxy]-7-thia-9,11-diazatricyclo[6.4.0.0[2,6]]dodeca-1(8),2(6),9,11-tetraen-3-yl]acetamide] | – | – | 0.5 to 1 | 0.5 to 1 | < 5
CN(C)[C@H]1CC[C@H](Oc2ncnc3sc4c(c23)[C@@H](CC(O)C(N)=O)CC4)CC1 (stereo partly drawn) [Compound I-57, 3-[(3R)-12-[[4-(dimethylamino)cyclohexyl]oxy]-7-thia-9,11-diazatricyclo[6.4.0.0[2,6]]dodeca-1(8),2(6),9,11-tetraen-3-yl]-2-hydroxypropanamide] | – | – | ≤ 0.5 | ≤ 0.5 | < 5
CN(CCc1ccccn1)[C@H]1CC[C@H](Oc2ncnc3sc4c(c23)[C@@H](CC(N)=O)CC4)CC1 [Compound I-128, 2-((R)-4-(((1 r,4R)-4-(methyl(2-(pyridin-2-yl)ethyl)amino)cyclohexyl)oxy)-6,7-dihydro-5H-cyclopenta[4,5]thieno[2,3-d]pyrimidin-5-yl)acetamide] | – | – | 0.5 to 1 | 1 to 5 | < 5
C[C@H](O)C[C@H]1CCc2sc3ncnc(O[C@H]4CC[C@H](N5CCOCC5)CC4)c3c21 [Compound I-83, (S)-1-((R)-4-(((1 r,4R)-4-morpholinocyclohexyl)oxy)-6,7-dihydro-5H-cyclopenta[4,5]thieno[2,3-d]pyrimidin-5-yl)propan-2-ol] | – | – | – | 0.5 to 1 | < 5
N#CC(C[C@H]1CCc2sc3ncnc(O[C@H]4CC[C@H](N5CCOCC5)CC4)c3c21)C(N)=O (stereo partly drawn) [Compound I-86, 2-cyano-3-((R)-4-(((1r,4R)-4-morpholinocyclohexyl)oxy)-6,7-dihydro-5H-cyclopenta[4,5]thieno[2,3-d]pyrimidin-5-yl)propanamide] | – | – | – | 1 to 5 | < 5
CC[C@@H](O)C[C@H]1CCc2sc3ncnc(O[C@H]4CC[C@H](N(C)CC(=O)N5CCCC5)CC4)c3c21 [Compound I-71, 2-[(4-[[(3R)-3-[(2R)-2-hydroxybutyl]-7-thia-9,11-diazatricyclo[6.4.0.0[2,6]]dodeca-1(8),2(6),9,11-tetraen-12-yl]oxy]cyclohexyl)(methyl)amino]-1-(pyrrolidin-1-yl)ethan-1-one] | – | – | 1 to 5 | 0.5 to 1 | < 5
CN(C)[C@H]1CC[C@H](Oc2ncnc3sc4c(c23)[C@@H](CCO)CC4)CC1 [Compound I-34, 2-[(3R)-12-[[4-(dimethylamino)cyclohexyl]oxy]-7-thia-9,11-diazatricyclo[6.4.0.0[2,6]]dodeca-1(12),2(6),8,10-tetraen-3-yl]ethan-1-ol] | – | – | 1 to 5 | 1 to 5 | < 5

Now from value to compound:

IC50 (Whole Blood; [1]) [µM] | IC50 (Whole Blood; [2]) [µM] | IC50 (THP-1 cells; read-out: IL8 production IC50) [µM] | IC50 (THP-1 cells; read-out: TNFα production IC50) [µM] | IC50 (IRAK4) [µM] | SMILES
≥ 1 | ≥ 1 | ≤ 0.5 | ≤ 0.5 | – | Cn1cc(Nc2nc(O[C@H]3CC[C@H](N(C)C)CC3)c3c4c(sc3n2)CCC4CC(N)=O)cn1 (stereo in doubt) [Compound I-224, 2-[(3S)-12-[[4-(dimethylamino)cyclohexyl]oxy]-10-[(1-methyl-1H-pyrazol-4-yl)amino]-7-thia-9,11-diazatricyclo[6.4.0.0[2,6]]dodeca-1(8),2(6),9,11-tetraen-3-yl]acetamide]
≥ 1 | ≥ 1 | ≤ 0.5 | ≤ 0.5 | – | Cn1cc(Nc2nc(O[C@H]3CC[C@H](N4CCOCC4)CC3)c3c4c(sc3n2)CC[C@@H]4CC(N)=O)cn1 [Compound I-235]
– | – | 0.5 to 1 | 0.5 to 1 | < 5 | CN[C@H]1CC[C@H](Oc2ncnc3sc4c(c23)[C@@H](C[C@H](O)C(N)=O)CC4)CC1 [Compound I-137, (2S)-2-hydroxy-3-[(3R)-12-[[4-(methylamino)cyclohexyl]oxy]-7-thia-9,11-diazatricyclo[6.4.0.0[2,6]]dodeca-1(8),2(6),9,11-tetraen-3-yl]propanamide]
– | – | 1 to 5 | 1 to 5 | < 5 | CN(CC(=O)N1CCCC1)[C@H]1CC[C@H](Oc2ncnc3sc4c(c23)[C@@H](C[C@H](O)C(N)=O)CC4)CC1 [Compound I-149, (2S)-2-hydroxy-3-[(3R)-12-[(4-[methyl[2-oxo-2-(pyrrolidin-1-yl)ethyl]amino]cyclohexyl)oxy]-7-thia-9,11-diazatricyclo[6.4.0.0̂[2,6]]dodeca-1(8),2(6),9,11-tetraen-3-yl]propanamide]
– | – | 1 to 5 | 0.5 to 1 | < 5 | OC[C@@H]1CCc2sc3ncnc(O[C@H]4CC[C@H](N5CCOCC5)CC4)c3c2C1 [Compound I-215, [(12R)-3-[[4-(morpholin-4-yl)cyclohexyl]oxy]-8-thia-4,6-diazatricyclo[7.4.0.0[2,7]]trideca-1(9),2(7),3,5-tetraen-12-yl]methanol]
– | – | ≤ 0.5 | ≤ 0.5 | < 5 | NC(=O)C(F)(F)C[C@H]1CCc2sc3ncnc(O[C@H]4CC[C@H](N5CCOCC5)CC4)c3c21 [Compound I-142, 2,2-difluoro-3-((R)-4-(((1r,4R)-4-morpholinocyclohexyl)oxy)-6,7-dihydro-5H-cyclopenta[4,5]thieno[2,3-d]pyrimidin-5-yl)propanamide]
– | – | ≤ 0.5 | 0.5 to 1 | < 5 | [2H]C1([2H])c2sc3ncnc(O[C@H]4CC[C@H](N5CCOCC5)CC4)c3c2[C@@H](CC(N)=O)C1([2H])[2H] [Compound I-188, 2-[(3R)-12-[[4-(morpholin-4-yl)cyclohexyl]oxy](4,4,5,5-d4)-7-thia-9, 11-diazatricyclo[6.4.0.0[2,6]]dodeca-1(8),2(6),9, 11-tetraen-3-yl]acetamide-d4]
– | – | 0.5 to 1 | ≤ 0.5 | < 5 | NC(=O)C[C@H]1CCc2sc3ncnc(O[C@H]4CC[C@H](N5CCC(F)(F)CC5)CC4)c3c21 [Compound I-229, 2-[(3R)-12-[[4-(4,4-difluoropiperidin-1-yl)cyclohexyl]oxy]-7-thia-9,11-diazatricyclo[6.4.0.0[2,6]]dodeca-1(8),2(6),9, 11-tetraen-3-yl]acetamide]

From US20160193216A1 (Nimbus Iris, Inc., priority 2012, published 2016)
